“Also recorded” adds a separate entry of the source. Marks after values point to notes of the source that are not given here. Starred links: 1 amine or outer side, 2 acyl side, 3 side chain; linkers in the order of their positions; H or OH if unused. Non-standard residues stand in square brackets, D forms with d. No end group written: not given here. *: point of attachment. Dpa = quench label, O=C([C@H](CNc1ccc([N+](=O)[O-])cc1[N+](=O)[O-])N[*:1])[*:2]; Mca = COc1ccc2c(CC(=O)*)cc(=O)oc2c1

Assay [1] concerns the target T1, IGS5 polypeptide (His6-tagged IGS5 ectodomain) (Homo sapiens, UniProt Q495T6, V306M).
T1 construct: made in house; host or cells: Spodoptera frugiperda Sf9 (baculovirus IGBV73)
T1 sequence (Q495T6 with tags, fused parts or gaps V306M): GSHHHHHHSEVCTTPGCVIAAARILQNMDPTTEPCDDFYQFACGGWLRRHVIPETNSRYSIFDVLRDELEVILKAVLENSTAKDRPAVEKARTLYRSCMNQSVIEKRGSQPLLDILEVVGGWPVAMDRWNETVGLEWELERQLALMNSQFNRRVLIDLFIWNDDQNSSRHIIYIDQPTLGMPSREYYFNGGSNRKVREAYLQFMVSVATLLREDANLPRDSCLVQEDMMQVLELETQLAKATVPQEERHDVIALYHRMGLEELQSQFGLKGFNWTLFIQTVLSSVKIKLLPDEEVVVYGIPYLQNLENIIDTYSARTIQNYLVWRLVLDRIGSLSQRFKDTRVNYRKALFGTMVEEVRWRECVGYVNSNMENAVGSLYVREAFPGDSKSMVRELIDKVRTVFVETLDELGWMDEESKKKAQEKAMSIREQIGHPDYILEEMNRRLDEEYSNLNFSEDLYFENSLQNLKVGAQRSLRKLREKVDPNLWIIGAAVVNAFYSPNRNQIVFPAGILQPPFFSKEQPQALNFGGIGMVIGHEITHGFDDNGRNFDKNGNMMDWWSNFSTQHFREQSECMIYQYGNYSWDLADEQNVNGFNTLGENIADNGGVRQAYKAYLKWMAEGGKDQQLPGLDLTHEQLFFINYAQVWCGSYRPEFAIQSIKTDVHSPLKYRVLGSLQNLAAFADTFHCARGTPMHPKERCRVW
Put plainly: Hydrolysis of vasoactive peptides and PACAP(1-27) by IGS5 polypeptide (HPLC). Format: biochemical. To be noted: for % Hydrolysis by IGS5 Polypeptide: 0.5 μM substrate, 2 h, 37° C. The method, then:
(§1) The enzymatic activity of IGS5 polypeptides of the invention was tested with regard to the metabolism of biologically active peptides. In particular it was tested whether these IGS5 polypeptides may act on a variety of vasoactive peptides known in the state of the art e.g. such like atrial natriuretic peptide (ANP), bradykinin, big endothelin (Big ET-1), endothelin (ET-1), substance P and angiotensin-1. In the context of the present invention in particular it was tested whether the IGS5 ectodomain, which is a novel human metalloprotease, hydrolyzes said vasoactive peptides. For comparison the assay was also performed for a known member of the metalloprotease family which was described earlier as soluble secreted endopeptidase (SEP) by Ikeda, Emoto et al. (J. Biol. Chem., Vol. 274 (1999): pp. 32469-32477). Furthermore, it was tested whether the activity of IGS5 to convert a Big-ET-1 analogue (the so-called 17 aa Big-ET) may be inhibited by reference compounds that are used to determine the inhibition properties with regard to enzymes having ECE and/or NEP-characteristics. […] It was then checked whether the activity of IGS5 to convert PACAP(1-27) may be inhibited by a compound known to be a IGS5 inhibitor. The compound used to test the inhibition of IGS5-activity on PACAP(1-27) was the active metabolite of (3S,2′R)-3-{1-[2′-(ethoxycarbonyl)-4′-phenylbutyl]-cyclopentane-1-carbonylamino}-2,3,4,5-tetrahydro-2-oxo-1H-1-benzazepine-1-acetic acid (compound Ia-2 from WO 02/094176).
The enzymatic reaction was subsequently terminated by heating to 95° C. for 5 min. After centrifugation (Heraeus Biofuge B, 3 min) the supernatant was subjected to HPLC
(§2) In order to separate the remaining substrate from the cleavage products reversed phase HPLC technique was used with a CC 125/4 Nucleosil 300/5 C18 RP column and a CC 8/4 Nucleosil 100/5 C18 precolumn (commercially available from Macherey-Nagel, Duren, Germany). Thus, 60 μl of the reaction samples obtained in Example 7B were injected into the HPLC, and the column was eluted at a flow rate of 1 ml/min by applying the following gradient and solutions: […]
(§3) Peptides were detected by absorbance at 214 nm (UV spectroscopy) and/or by fluorescence with an excitation wavelength of 328 nm and an emission wavelength of 393 nm.
% Hydrolysis: For detection of substrate cleavage, the percentage of hydrolysis was calculated by directly comparing the substance peak areas in HPLC traces of the sample without addition of any IGS5 enzyme activity (blank) and of the samples with addition of IGS5 enzyme (sample). % hydrolysis was calculated on basis of the respective peak areas. % hydrolysis=100*(1−(Asample/Ablank))

Assay [2] addresses T2, SEP (soluble secreted endopeptidase) (Mus musculus, UniProt Q9JLI3).
T2 sequence (Q9JLI3 1-765): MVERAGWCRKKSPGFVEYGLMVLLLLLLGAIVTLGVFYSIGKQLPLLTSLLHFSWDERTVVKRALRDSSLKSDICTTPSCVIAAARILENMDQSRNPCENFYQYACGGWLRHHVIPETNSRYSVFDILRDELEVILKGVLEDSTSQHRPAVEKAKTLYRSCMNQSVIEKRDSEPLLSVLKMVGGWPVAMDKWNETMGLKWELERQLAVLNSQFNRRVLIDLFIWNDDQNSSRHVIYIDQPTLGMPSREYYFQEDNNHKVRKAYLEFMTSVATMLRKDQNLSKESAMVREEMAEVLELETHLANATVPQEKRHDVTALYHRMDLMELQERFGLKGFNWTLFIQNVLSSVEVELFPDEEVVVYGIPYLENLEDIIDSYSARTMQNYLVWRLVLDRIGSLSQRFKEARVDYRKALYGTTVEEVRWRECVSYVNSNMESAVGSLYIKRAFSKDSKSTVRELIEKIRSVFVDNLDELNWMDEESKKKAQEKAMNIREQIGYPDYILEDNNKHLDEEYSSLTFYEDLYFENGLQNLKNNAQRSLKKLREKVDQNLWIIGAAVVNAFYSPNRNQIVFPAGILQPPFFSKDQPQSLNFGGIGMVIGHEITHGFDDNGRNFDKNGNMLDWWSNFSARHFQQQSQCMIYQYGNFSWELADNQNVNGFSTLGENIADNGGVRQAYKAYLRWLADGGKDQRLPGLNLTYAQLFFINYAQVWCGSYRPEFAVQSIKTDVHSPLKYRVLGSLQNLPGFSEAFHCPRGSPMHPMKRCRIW
To be noted: 100 μl assay volume; 10 μg partially purified SEP; 0.5 μM substrate; 12 h, 37° C.; cited from earlier work.

In assay [3] the target is T1, IGS5 polypeptide (His6-tagged IGS5 ectodomain). Put plainly: Enzyme inhibition assay: IGS5 conversion of the Big-ET-1 analogue 17 aa Big-ET (HPLC). Format: biochemical. To be noted: for Inhibition of IGS5 (result in words): conversion of Big-ET-1 analogue 17 aa Big-ET; for IC50: substrate 17 aa Big-ET, 60 min, 37° C., read-out: Inhibition of IGS5 polypeptide's activity to convert the Big-ET-1 analogue 17 aa Big-ET, IC50. The method, then: as §1
All test compounds were dissolved in DMSO at 10 mM and were further diluted with assay buffer.
A quantity of 70 μl, of the assay buffer, of 10 μl enzyme working solution (10 μg/ml) and of 10 μl test compound solution were mixed in an Eppendorf vial and preincubated at 37° C. for 15 minutes. Then, 10 μl substrate stock solution was added and the reaction mixture was incubated at 37° C. for 60 minutes to allow for enzymatic hydrolysis. Subsequently the enzymatic reaction was terminated by heating at 95° C. for 5 minutes. After centrifugation (Heraeus Biofuge B, 3 min) the supernatant was subjected to HPLC analysis.
as §2, §3
% Inhibition: The increasing fluorescence signal of the HPLC-peak of the peptide with the unquenched Mca-fluorophor after hydrolysis was taken as the basis for any calculation. This signal was compared for the samples with and without inhibitor and % inhibition was calculated on basis of the respective peak areas. If non labeled peptide substrates were used, basis of the calculation of % inhibition was the peak area of the remaining undegraded peptide substrate for an inhibitory test compound containing sample (inhib) in comparison to samples containing only peptide without addition of any IGS5 enzyme activity (blank) and to samples containing peptide and enzyme without inhibitor (control) according to the following equation % inhib=100*((Ainhib−Acontrol)/(Ablank−Acontrol)) All samples were run in duplicate and mean values were used. A standard inhibitor (10 nM and 100 nM Phosphoramidon) and/or a solvent control (0.1%) was added to each assay run.

The mark [4] stands for this setting: 100 μl assay volume, 100 ng IGS5 polypeptide.

With `CC[C@H](C)[C@H](NC(=O)[C@H](CC(=O)O)NC(=O)[C@H](CC(C)C)NC(=O)[C@H](Cc1c[nH]cn1)NC(=O)[C@@H]1CSSC[C@H](N)C(=O)N[C@@H](CO)C(=O)N[C@H]2CSSC[C@H](NC(=O)[C@H](CCC(=O)O)NC(=O)[C@H](CCCCN)NC(=O)[C@H](CC(=O)O)NC(=O)[C@H](CCSC)NC(=O)[C@H](CC(C)C)NC(=O)[C@H](CO)NC(=O)[C@H](CO)NC2=O)C(=O)N[C@@H](C(C)C)C(=O)N[C@@H](Cc2ccc(O)cc2)C(=O)N[C@@H](Cc2ccccc2)C(=O)N1)C(=O)N[C@H](C(=O)N[C@@H](Cc1c[nH]c2ccccc12)C(=O)O)[C@@H](C)CC` [ET-1, endothelin], in assay [1] (setting [4]), the “% Hydrolysis by IGS5 Polypeptide” value is on record as <30%. In assay [1], the “Hydrolysis by IGS5 in vitro (result in words)” value (shortened to “Hydrolysis by IGS5 in vitro”) is listed as “hydrolyze”. Moreover, the “% Hydrolysis by SEP (Ikeda, Emoto et al., 1999)” value (“% Hydrolysis by SEP” for short) in assay [2] is listed as 92%.

Turning to “big endothelin (CSCSSLMDKECVYFCHLDIIWVNTPEHVVPYGLGSPRS) [Big ET-1]”, in assay [1], the “Hydrolysis by IGS5 in vitro” value is reported as “hydrolyze”. Also, the “% Hydrolysis by SEP” value in assay [2] is on record as 42%.

`CC[C@H](C)[C@@H]1NC(=O)[C@H](CCCNC(=N)N)NC(=O)[C@H](CC(=O)O)NC(=O)[C@H](CCSC)NC(=O)[C@H](CCCNC(=N)N)NC(=O)CNC(=O)CNC(=O)[C@H](Cc2ccccc2)NC(=O)[C@@H](NC(=O)[C@H](CO)NC(=O)[C@H](CO)NC(=O)[C@H](CCCNC(=N)N)NC(=O)[C@H](CCCNC(=N)N)NC(=O)[C@H](CC(C)C)NC(=O)[C@@H](N)CO)CSSC[C@@H](C(=O)N[C@@H](CC(N)=O)C(=O)N[C@@H](CO)C(=O)N[C@@H](Cc2ccccc2)C(=O)N[C@@H](CCCNC(=N)N)C(=O)N[C@@H](Cc2ccc(O)cc2)C(=O)O)NC(=O)CNC(=O)[C@H](CC(C)C)NC(=O)CNC(=O)[C@H](CO)NC(=O)[C@H](CCC(N)=O)NC(=O)[C@H](C)NC(=O)CNC1=O` [ANP, atrial natriuretic peptide]: the results for the “% Hydrolysis by IGS5 Polypeptide” value in assay [1] (500 ng IGS5 polypeptide) and in assay [1] (setting [4]) were 80% and 5%, respectively. Also, in assay [1], the “Hydrolysis by IGS5 in vitro” value is on record as “hydrolyze”. The “% Hydrolysis by SEP” value in assay [2] is listed as >95%.

With “Mca-Asp-Ile-Ala-Trp-Phe-Dpa-Thr-Pro-Glu-His-Val-Val-Pro-Tyr-Gly-Leu-Gly-COOH (Mca-DIAWF[Dpa]TPEHVVPYGLG-OH; SMILES CC[C@H](C)[C@H](NC(=O)[C@H](CC(=O)O)NC(=O)Cc1cc(=O)oc2cc(OC)ccc12)C(=O)N[C@@H](C)C(=O)N[C@@H](Cc1c[nH]c2ccccc12)C(=O)N[C@@H](Cc1ccccc1)C(=O)N[C@@H](CNc1ccc([N+](=O)[O-])cc1[N+](=O)[O-])C(=O)N[C@H](C(=O)N1CCC[C@H]1C(=O)N[C@@H](CCC(=O)O)C(=O)N[C@@H](Cc1c[nH]cn1)C(=O)N[C@H](C(=O)N[C@H](C(=O)N1CCC[C@H]1C(=O)N[C@@H](Cc1ccc(O)cc1)C(=O)NCC(=O)N[C@@H](CC(C)C)C(=O)NCC(=O)O)C(C)C)C(C)C)[C@@H](C)O) [17 aa Big ET 1]”, the “% Hydrolysis by IGS5 Polypeptide” value in assay [1] (setting [4]) was found to be 41%.

What is called IC50 is the concentration needed to halve the response being measured. As for `CC(C)C[C@H](NP(=O)(O)O[C@@H]1O[C@@H](C)[C@H](O)[C@@H](O)[C@H]1O)C(=O)N[C@@H](Cc1c[nH]c2ccccc12)C(=O)O` [Phosphoramidon], in assay [3], the “Inhibition of IGS5 (result in words)” value is “inhibited; also recorded: inhibition” and the IC50 is 18 nM.

As for `O=C(O)CNC(=O)C(CS)Cc1ccccc1` (centres unmarked) [Thiorphan], in assay [3], the “Inhibition of IGS5 (result in words)” value was “not efficiently inhibited; also recorded: no inhibition” and the IC50 was > 1000 nM.

Consider substance P, for which, in assay [1] (setting [4]), the “% Hydrolysis by IGS5 Polypeptide” value came to 100%. Moreover, the “% Hydrolysis by SEP” value in assay [2] is reported as >95%.

In the case of RPPGFSPFR [Bradykinin, bradykinin], the “% Hydrolysis by IGS5 Polypeptide” value was 62% in assay [1] (10 ng IGS5 polypeptide) and 100% in assay [1] (setting [4]).

For `O=C(O)C(Cc1ccc2c(c1)oc1ccccc12)NCP(=O)(O)O` (centres unmarked) [CGS-35066], in assay [3], the “Inhibition of IGS5 (result in words)” value is “not inhibited; also recorded: no inhibition” and the IC50 stood at 1300 nM.

As for “angiotensin-1 (DRVYIHPFHL) [Angiotensin 1]”, in assay [1], the “Formation of angiotensin II on degradation by IGS5” value is on record as “***degradation of angiotensin I does not result in formation of angiotensin II”. In assay [1] (setting [4]), the “% Hydrolysis by IGS5 Polypeptide” value was 15*** %. The “% Hydrolysis by SEP” value in assay [2] was >95%.
